These results are taken from US20090156399A1, “Synergistic Insecticide Mixtures” (Bayer CropScience AG, priority 2005, published 2009).

This test has as its system Myzus persicae. Briefly: Myzus persicae test (cabbage leaf dip). Type of test: in vivo. From the text: The expected activity for a given combination of two active compounds can be calculated (cf. COLBY, S. R.; “Calculating Synergistic and Antagonistic Responses of Herbicide Combinations”, Weeds 15, pages 20-22, 1967):
if • X=the kill rate, expressed in % of the untreated control, when employing active compound A at an application rate of m ppm, • Y=the kill rate, expressed in % of the untreated control, when employing active compound B at an application rate of n ppm, • E=the kill rate, expressed in % of the untreated control, when employing active compounds A and B at application rates of m and n ppm, then
If the actual insecticidal kill rate is higher than the calculated one, the kill rates of the combination are superadditive, i.e. a synergistic effect is present. In this case, the kill rate that is actually observed has to be higher than the value, calculated using the formula above, for the expected kill rate (E).
To produce a suitable preparation of active compound, 1 part by weight of active compound is mixed with the stated amounts of solvent and emulsifier, and the concentrate is diluted with emulsifier-containing water to the desired concentration. […]
After the desired period of time, the kill in % is determined. […] The determined kill rates are entered into Colby's formula (see page 27).

Regarding `CN/C(=N\[N+](=O)[O-])NCc1cnc(Cl)s1` [Clothianidin], the “Kill in % after 6d” value (0.16 ppm, cabbage leaves dipped, after 6 d) is given as 0%. Take `N#C/N=C1\SCCN1Cc1ccc(Cl)nc1` [Thiacloprid]: the “Kill in % after 1d” value (0.8 ppm, cabbage leaves (Brassica oleracea) dipped, after 1 d) is listed as 30%.
